The IC50 is the concentration at which inhibition is half-maximal.

In BindingDB's records for patent US20250099442 (Prothena Biosciences, 2025) one finds IC50 data, which are given here for 64 molecules.

This test addresses Dual specificity tyrosine-phosphorylation-regulated kinase 1A (Homo sapiens, UniProt Q13627). Kind of test: DYRK1A Inhibition Assay. The protocol: Assay Procedure1. Add 5 μL enzyme & substrate mixture to each well in Column 2-23 and A24-H24 wells of the 384-well assay plate;2. Add 5 μL 0% Phosphorylation control to A1-H1 and I24-P24 wells of the assay plate;3. Add 5 μL 100% Phosphorylation control to I1-P1 wells of the assay plate;4. Spin the assay plate (1000 rpm, 1 minute @23° C.);5. Incubate enzyme with compounds for 15 minutes at 23° C.;6. Add 5 μL ATP solution to each well of the assay plate;7. Spin the plate (1000 rpm, 1 minute @23° C.);8. Incubate the assay plate for 90 minutes at 23° C.;9. Add 10 μL Development reagent A to each well of the assay plate;10. Centrifuge the plate at 1000 rpm about 15 seconds and seal a film over assay plate. Incubate the assay plate for 30 minutes at 23° C.11. Read assay plates on Envision

A value given as a limit tells only on which side of the number the result lay.

`CN1CCC(C(=O)Nc2cc(-c3cc(Cl)cc4ncccc34)ccn2)CC1` [US20250099442, Compound I.56] showed an IC50 of 100 to 1000 nM.

Molecule `CC(C)CN1CCC(CNc2cc(-c3cn(C(C)C)c4cnccc34)ccn2)CC1` [US20250099442, Compound I.6] registered a 50% inhibitory concentration (IC50) of 10 to 100 nM. The result for `Cc1c(C#CC2CCOCC2)nc2ccc(-c3ccncc3)cn12` [US20250099442, Compound I.76] reads 10 to 100 nM. Molecule `CCN1CCC(C(=O)Nc2cc(-c3ccc4c(c3)ncn4C(F)F)ccn2)CC1` [US20250099442, Compound I.94] returned a concentration for half-maximal inhibition (IC50) greater than 1000 nM. With `CC(=O)N1CCCC(n2cnc3ccc(-c4ccncc4)cc32)C1` (centres undefined) [US20250099442, Compound I.23] the figure was 100 to 1000 nM. The result for `CN1CCC(C2CN(c3ncc(-c4ccncc4)c4c3C(=O)NC4)C2)CC1` [US20250099442, Compound I.89] reads greater than 1000 nM; that for `COc1cc(-c2ccc3nc(NC(=O)C4CN(C)C4)sc3c2)ccn1` [US20250099442, Compound I.46], 10 to 100 nM; that for `CN1CCC(C(=O)Nc2ccc3c(-c4ccncc4)c[nH]c3n2)CC1` [US20250099442, Compound I.67], less than 10 nM. In turn, `CC(C)CN1CCC(C(=O)Nc2cc(-c3cn(C(C)C)c4cnccc34)ccn2)CC1` [US20250099442, Compound I.4] had a half-maximal inhibitory concentration (IC50) of less than 10 nM. The result for `CS(=O)(=O)N1CCC[C@@H](n2cnc3ccc(-c4ccncc4)cc32)C1` [US20250099442, Compound I.22] reads 100 to 1000 nM; that for `c1cc(-c2ccc3ncn(C4CCCNC4)c3c2)ccn1` (centres undefined) [US20250099442, Compound I.19], 10 to 100 nM; that for `CCCOc1cc(COC2CCN(C)CC2)nc2[nH]cc(-c3ccncc3)c12` [US20250099442, Compound I.85], 10 to 100 nM.

`CN1CCC(C(=O)Nc2cn3cc(-c4ccncc4)ccc3n2)CC1` [US20250099442, Compound I.42] displayed a 50% inhibitory concentration (IC50) of less than 10 nM. The result for `N#Cc1ccc(S(=O)(=O)N2CCCC(n3cnc4ccc(-c5ccncc5)cc43)C2)cc1` (centres undefined) [US20250099442, Compound I.33] reads 100 to 1000 nM; that for `O=C(O)c1ccc(-c2cnc3n2CC(=O)N(C2CCOCC2)C3)cc1` [US20250099442, Compound I.81], greater than 1000 nM; that for `CS(=O)(=O)Nc1cnc2sc(-c3cccc(O)c3)nc2c1` [US20250099442, Compound I.13], greater than 1000 nM. In turn, `CN1C[C@@H]2C(C(=O)Nc3nc4ccc(-c5cccnc5)nc4s3)[C@@H]2C1` (some centres undefined) [US20250099442, Compound I.70] came in with an IC50 of 100 to 1000 nM. The result for `c1cc(-c2ccc3nc4n(c3c2)CCNC4)ccn1` [US20250099442, Compound I.48] reads 100 to 1000 nM; that for `CC(C)CN1CCC(C(=O)Nc2nccc(-c3cn(C(C)C)c4cnccc34)n2)CC1` [US20250099442, Compound I.8], 10 to 100 nM. For `CN1CC(C(=O)Nc2nc3ccc(-c4ccncc4)cc3s2)C1` [US20250099442, Compound I.45], the 50% inhibitory concentration (IC50) was in the range of 10 to 100 nM. Molecule `COc1cc(-c2ccc3nc(NC(=O)c4cccc(C#N)c4)sc3n2)ccn1` [US20250099442, Compound I.71] showed a concentration for half-maximal inhibition (IC50) of less than 10 nM. With `Cc1cc(-c2cn3ncc(-c4ccc(O)c(C#N)c4)c3c(=O)n2C)ccn1` [US20250099442, Compound I.84] the figure was 10 to 100 nM; with `CC(C)CN1CCC(C(=O)Nc2cc(-c3ccc4nn(C)cc4c3)ccn2)CC1` [US20250099442, Compound I.18], 10 to 100 nM.

`C[C@@H]1CC(C(=O)Nc2cn3cc(-c4ccncc4)ccc3n2)C[C@H](C)N1` (some centres undefined) [US20250099442, Compound I.65] had a half-maximal inhibitory concentration (IC50) of 10 to 100 nM. The result for `CN1CCC(C(=O)Nc2cc(-c3cc(=O)n(C)c4ccccc34)ccn2)CC1` [US20250099442, Compound I.55] reads 10 to 100 nM; that for `c1cc(-c2ccc3ncsc3c2)c(OC2CCC2)cn1` [US20250099442, Compound I.83], 100 to 1000 nM; that for `CN1CCC(C(=O)Nc2nc3ccc(-c4ccncc4)nc3s2)CC1` [US20250099442, Compound I.51], less than 10 nM. With `CC(C)CN1CCC(C#Cc2nc3ccc(-c4ccnc(N)c4)nc3n2C2CC2)CC1` [US20250099442, Compound I.99] the figure was 10 to 100 nM; with `O=S(=O)(c1ccc(F)cc1)N1CCCC(n2cnc3ccc(-c4ccncc4)cc32)C1` (centres undefined) [US20250099442, Compound I.39], 100 to 1000 nM. Molecule `CN1CCC(N2CCn3c(nc4ccc(-c5ccncc5)cc43)C2)CC1` [US20250099442, Compound I.49] had an IC50 of 10 to 100 nM.

Take `CC(C)CN1CCC(CNc2nccc(-c3cn(C(C)C)c4cnccc34)n2)CC1` [US20250099442, Compound I.9]: the 50% inhibitory concentration (IC50) was 100 to 1000 nM.

As to `O=C(O)c1ccc(-c2cnc3n2CCN(c2cccnc2)C3)cc1` [US20250099442, Compound I.78], the 50% inhibitory concentration (IC50) is 100 to 1000 nM. In the case of `CN1CCC(C(=O)Nc2cc(-c3ccc4c(c3)ncn4C)ccn2)CC1` [US20250099442, Compound I.34], the IC50 was less than 10 nM.

`COc1cccc(-c2nc3cc(NS(C)(=O)=O)cnc3s2)c1` [US20250099442, Compound I.12] returned a half-maximal inhibitory concentration (IC50) greater than 1000 nM. The result for `O=C(Nc1cc2cc(-c3ccncc3)cn2cn1)C1CCOCC1` [US20250099442, Compound I.63] reads 10 to 100 nM; that for `Cc1cc(-c2ccnc(NC(=O)C3CCN(C)CC3)c2)c2ocnc2c1` [US20250099442, Compound I.57], 100 to 1000 nM; that for `c1ccc(Oc2cc(-c3ccc4c(c3)CCO4)ccn2)cc1` [US20250099442, Compound I.10], greater than 1000 nM. `CC(=O)N1CCC(n2cnc3ccc(-c4ccncc4)cc32)CC1` [US20250099442, Compound I.38]: the IC50 lay in the range of 10 to 100 nM. With `Cn1nc2cnccc2c1-c1ccnc(NC(=O)C2CC2)c1` [US20250099442, Compound I.25] the figure was greater than 1000 nM; with `CN1CCC(C(=O)N2CCn3c(nc4ccc(-c5ccncc5)cc43)C2)CC1` [US20250099442, Compound I.64], 10 to 100 nM. `Cn1ncc2ccc(-c3cncc(O[C@@H]4Cc5ccccc5[C@@H]4N)c3)cc21` [US20250099442, Compound I.37] yielded an IC50 of 100 to 1000 nM.

`Cc1cc(-c2cnn3cc(-c4ccc5cnccc5c4)n(C)c(=O)c23)ccn1` [US20250099442, Compound I.80]: the IC50 lay within 100 to 1000 nM.

With `CCCOc1cc(COC2CCN(C)CC2)nc2[nH]cc(C(F)(F)F)c12` [US20250099442, Compound II.7], the IC50 is less than 500 nM. Turning to `c1cc(-c2cnc3[nH]cc(C4CCC4)c3c2)ccn1` [US20250099442, Compound I.16], the 50% inhibitory concentration (IC50) is greater than 1000 nM. The result for `CS(=O)(=O)N1CCC(n2cnc3ccc(-c4ccncc4)cc32)CC1` [US20250099442, Compound I.32] reads 10 to 100 nM; that for `CCN1CCC(C(=O)Nc2cc(-c3ccc4ncn(C(F)F)c4c3)ccn2)CC1` [US20250099442, Compound I.93], 10 to 100 nM. Regarding `CC(C)CN1CCC(C#Cc2cc(-c3cn(C4CCOCC4)c4cnccc34)ccn2)CC1` [US20250099442, Compound I.100], the IC50 is 10 to 100 nM. With `CC(C)CN1CCC(O)(C#Cc2ccc3c(-c4ccncc4)c[nH]c3n2)CC1` [US20250099442, Compound I.96] the figure was 100 to 1000 nM; with `COc1cc(-c2ccnc(NC(=O)C3CCN(C)CC3)c2)cc2cnccc12` [US20250099442, Compound I.60], 10 to 100 nM. With `COc1ccc(CN2Cc3ncc(-c4ccc(C#N)cc4)n3CC2=O)cc1` [US20250099442, Compound I.82] the figure was greater than 1000 nM; with `C(#CC1CCOCC1)c1cc(-c2cn(C3CCOCC3)c3cnccc23)ccn1` [US20250099442, Compound I.92], less than 10 nM; with `CC(C)CN1CCC(C(=O)Nc2cc(-c3c[nH]c4cnccc34)ccn2)CC1` [US20250099442, Compound I.3], less than 10 nM.

Regarding `CC(C)n1cc(-c2ccncc2)c2ccncc21` [US20250099442, Compound I.2], the half-inhibitory concentration (IC50) was less than 10 nM.

Regarding `OC1(C#Cc2ccc3c(-c4ccncc4)c[nH]c3n2)CCNCC1` [US20250099442, Compound I.95], the IC50 was 100 to 1000 nM. With `c1cc(Cc2cnc3ccc(-c4ccncc4)cn23)c2cn[nH]c2c1` [US20250099442, Compound I.28] the figure was 100 to 1000 nM. The result for `c1cc(-c2ccc3c(c2)CCO3)cc(OCC2CCCCN2)n1` (centres undefined) [US20250099442, Compound I.36] reads 100 to 1000 nM; that for `CN1CCC(C#Cc2cc(-c3cn(C4CCOCC4)c4cnccc34)ccn2)CC1` [US20250099442, Compound I.91], less than 10 nM. Turning to `Cc1c(-c2ccncc2)cn2cnc(NC(=O)C3[C@H]4CN(C)C[C@@H]34)cc12` (some centres undefined) [US20250099442, Compound I.73], the IC50 lay in the range of 10 to 100 nM. The result for `CN1CCn2c(nc3ccc(-c4ccncc4)cc32)C1` [US20250099442, Compound I.50] reads greater than 1000 nM. `c1cncc(-c2ccc3cncc(OC4CCNC4)c3c2)c1` (centres undefined) [US20250099442, Compound I.87] gave an IC50 of 100 to 1000 nM. The result for `COc1cc(-c2ccc3nc(NC(=O)C4C5CC4CN(C)C5)sc3c2)ccn1` (centres undefined) [US20250099442, Compound I.43] reads 10 to 100 nM; that for `Fc1ccc(COc2cc(-c3ccc4c(c3)CCO4)ccn2)cc1F` [US20250099442, Compound I.35], greater than 1000 nM. In the case of `CN1CCC(Oc2cnc3[nH]cc(-c4cc[nH]c(=O)c4)c3n2)C1` (centres undefined) [US20250099442, Compound I.88], the half-maximal inhibitory concentration (IC50) was 100 to 1000 nM. The result for `CN1CCC(C(=O)Nc2nc3ccc(-c4ccncc4)cc3s2)CC1` [US20250099442, Compound I.14] reads less than 10 nM.
